# The supplement of paper PMC10307832
# Assays:
# Assay in all cases: relative viability (nuclei count vs DMSO), 5 days (fraction); higher = more cells survive
# [1] = compound: C[C@]1(c2nc3c(C(N)=O)cccc3[nH]2)CCCN1 [Veliparib] + CS(=O)(=O)CCNCc1ccc(-c2ccc3ncnc(Nc4ccc(OCc5cccc(F)c5)c(Cl)c4)c3c2)o1 [Lapatinib] (partner 2 µM)
# Method in brief: (§1)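 Each reported value is a median over duplicate plates. It expresses relative viability: treated-well nuclei count divided by vehicle-well nuclei count. Lung cancer cell lines in 1536-well plates were dosed by pin tool a day after seeding, alone with one drug or with a fixed anchor-drug dose plus five library-drug doses (not always all listed) in √10 steps, and nuclei were counted after 5 days.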
# [2] = compound: COC1=CC=C(C=C1)CN2C=CC3=C2C=C(C=C3)C(=O)NO + C[C@]1(O)C[C@@H](c2nc(-c3ccc4ccc(-c5ccccc5)nc4c3)c3c(N)nccn32)C1 [Linsitinib] (partner 1 µM)
# Method in brief: as §1
# [3] = compound: COC1=CC=C(C=C1)CN2C=CC3=C2C=C(C=C3)C(=O)NO + Cc1nc(Nc2ncc(C(=O)Nc3c(C)cccc3Cl)s2)cc(N2CCN(CCO)CC2)n1 [Dasatinib] (partner 0.075 µM)
# Method in brief: as §1
# [4] = compound: COC1=CC=C(C=C1)CN2C=CC3=C2C=C(C=C3)C(=O)NO + Nc1nc2[nH]cc(CCc3ccc(C(=O)N[C@@H](CCC(=O)O)C(=O)O)cc3)c2c(=O)[nH]1 [Pemetrexed] (partner 0.2 µM)
# Method in brief: as §1
Cell Line,relative viability ([1]; first compound 0.02 µM),relative viability ([1]; first compound 0.06325 µM),relative viability ([1]; first compound 0.2 µM),relative viability ([1]; first compound 0.6325 µM),relative viability ([1]; first compound 2 µM),relative viability ([2]; first compound 0.08 µM),relative viability ([2]; first compound 0.253 µM),relative viability ([2]; first compound 0.8 µM),relative viability ([2]; first compound 2.53 µM),relative viability ([2]; first compound 8 µM),relative viability ([3]; first compound 0.08 µM),relative viability ([3]; first compound 0.253 µM),relative viability ([3]; first compound 0.8 µM),relative viability ([3]; first compound 2.53 µM),relative viability ([3]; first compound 8 µM),relative viability ([4]; first compound 0.08 µM),relative viability ([4]; first compound 0.8 µM),relative viability ([4]; first compound 2.53 µM),relative viability ([4]; first compound 8 µM),relative viability ([4]; first compound 0.253 µM)
PC-3 [JPC-3],0.422,0.397,0.454,0.476,0.477,0.963,0.962,0.97,1,1.06,0.986,0.974,1.06,1.13,1.03,1.04,1.14,1.21,1.12,–
NCI-H23,1.19,0.995,0.84,0.873,1.01,0.406,0.619,0.564,0.599,0.544,0.877,0.775,0.801,0.784,0.637,0.514,0.714,0.709,0.668,0.625
SK-MES-1,0.5,0.413,0.438,0.473,0.473,1.03,1.05,1.12,1.14,1.01,0.475,0.363,0.542,0.396,0.262,0.968,0.9,0.896,0.849,0.985
NCI-H1651,0.557,0.755,0.92,0.835,0.775,0.939,1.01,1.08,0.869,0.716,0.311,0.452,0.43,0.358,0.331,0.561,0.587,0.512,0.56,0.523
SK-LU-1,0.868,0.835,0.966,0.823,1.02,0.998,1.3,1.08,1.29,0.888,0.161,0.154,0.198,0.21,0.164,0.942,1,1.01,0.953,0.973
NCI-H727,0.388,0.759,0.9,0.876,0.734,0.214,0.355,0.298,0.256,0.298,0.349,0.315,0.437,0.417,0.303,–,–,–,–,–
NCI-H3122,0.931,1.05,0.995,0.994,1.07,0.975,1.04,1.03,1,0.997,0.864,0.869,0.86,0.741,0.527,0.2,0.195,0.209,0.193,0.208
HOP-62,1.14,0.878,0.951,0.99,1.12,0.681,1.06,1.01,0.924,1.04,0.601,0.72,0.658,0.66,0.529,0.278,0.31,0.244,0.35,0.454
LC-2-ad,–,0.813,0.967,0.94,0.951,0.783,0.851,0.873,0.999,0.804,0.407,0.633,0.582,0.677,0.349,0.283,0.307,0.303,0.261,0.292
EKVX,0.19,0.203,0.217,0.201,0.231,0.825,1.07,1.06,1.12,1.03,0.552,0.576,0.592,0.709,0.568,–,0.371,0.45,0.392,0.391
LCLC-103H,–,–,–,–,–,1.03,1.13,0.991,1.07,1.02,0.553,0.506,0.62,0.539,0.392,0.475,0.482,0.414,0.425,0.452
NCI-H1703,1.11,0.922,1.35,0.982,1.2,–,0.783,1.09,0.69,1.16,–,–,–,–,–,–,–,–,–,–
NCI-H2170,0.259,0.245,0.268,0.299,0.285,–,–,–,–,–,0.456,0.687,0.711,0.69,0.541,0.276,0.266,0.26,0.235,0.268
EBC-1,0.205,0.21,0.208,0.201,0.244,–,0.883,0.941,0.907,0.768,–,–,–,–,–,–,–,–,–,–
NCI-H1650,–,0.702,0.855,0.739,0.718,–,–,–,–,–,0.342,0.292,0.317,0.351,0.254,0.286,0.378,0.392,0.308,0.428
NCI-H522,–,–,–,–,–,–,–,–,–,–,–,0.904,1.12,0.781,0.765,–,1.06,0.84,1,1.01
A549,1.12,0.93,0.978,0.869,0.957,–,0.678,0.595,0.697,0.558,–,–,–,–,–,–,–,–,–,–
HCC-44,0.986,0.85,1.01,0.933,1.07,0.568,0.69,0.681,0.705,0.637,–,–,–,–,–,0.628,0.585,0.649,0.664,0.665
NCI-H2342,–,–,–,–,–,–,–,–,–,–,0.297,0.321,0.305,0.304,0.313,0.726,0.791,0.753,0.829,0.788
NCI-H1623,–,–,–,–,–,–,–,–,–,–,0.389,0.487,0.517,0.525,0.418,–,–,–,–,–
SW 900,–,–,–,–,–,–,–,–,–,–,0.541,0.556,0.628,0.629,0.334,0.446,0.478,0.486,0.474,0.47
NCI-H1299,0.972,0.944,0.951,0.956,0.978,0.952,0.976,0.994,0.977,0.959,–,–,–,–,–,–,–,–,–,–
Calu-6,1.14,0.985,0.96,0.971,0.989,–,0.961,0.949,0.906,0.902,–,–,–,–,–,–,–,–,–,–
